Source: US20010021697A1, “METHODS AND COMPOSITIONS FOR THE TREATMENT OF MAMMALIAN INFECTIONS EMPLOYING MEDICAMENTS COMPRISING HYMENOPTERA VENOM, PROTEINAGEOUS OR POLYPEPTIDE COMPONENTS THEREOF, OR ANALOGUES OF SUCH PROTEINACEOUS OR POLYPEPTIDE COMPONENTS” (priority 1987, published 2001)
Where two headings read alike, the source gives them in different places.

Assays:
Assay type in all cases: cell-based
[1] = system: S. aureus #140A
[2] = system: E. coli #G1880E
[3] = system: kanamycin resistant S. aureus; experiment: Checkerboard titration assay for synergy of honeybee venom with antibiotics (OD660 growth curves)

SMILES: CC1(C)S[C@@H]2[C@H](NC(=O)[C@H](N)c3ccccc3)C(=O)N2[C@H]1C(=O)O [AMP]
- MEAN A660 ([1]; AMP = 0.05, HBV = 0, T0): 0.013
- MEAN A660 ([1]; AMP = 0.05, HBV = 0, T2): 0.085
- MEAN A660 ([1]; AMP = 0.05, HBV = 0, T4): 0.355
- MEAN A660 ([1]; AMP = 0.05, HBV = 0, T6): 0.552
- MEAN A660 ([1]; AMP = 0.05, HBV = 0, T12): 0.736
- MEAN A660 ([1]; AMP = 0.05, HBV = 0, T24): 0.760
- MEAN A660 ([1]; AMP = 0.05, HBV = 0, TB): 0.689
- MEAN A66O ([1]; AMP = 0.1, HBV = 0, T0): 0.013
- MEAN A66O ([1]; AMP = 0.1, HBV = 0, T2): 0.085
- MEAN A66O ([1]; AMP = 0.1, HBV = 0, T4): 0.257
- MEAN A66O ([1]; AMP = 0.1, HBV = 0, T6): 0.248
- MEAN A66O ([1]; AMP = 0.1, HBV = 0, T8): 0.155
- MEAN A66O ([1]; AMP = 0.1, HBV = 0, T12): 0.095
- MEAN A66O ([1]; AMP = 0.1, HBV = 0, T24): 0.347
- MEAN A660 ([1]; AMP = 0.2, HBV = 0, T0): 0.013
- MEAN A660 ([1]; AMP = 0.2, HBV = 0, T2): 0.085
- MEAN A660 ([1]; AMP = 0.2, HBV = 0, T4): 0.202
- MEAN A660 ([1]; AMP = 0.2, HBV = 0, T6): 0.112
- MEAN A660 ([1]; AMP = 0.2, HBV = 0, T8): 0.052
- MEAN A660 ([1]; AMP = 0.2, HBV = 0, T12): 0.037
- MEAN A660 ([1]; AMP = 0.2, HBV = 0, T24): 0.042
- MEAN A66O ([1]; AMP = 0.4, HBV = 0, T0): 0.013
- MEAN A66O ([1]; AMP = 0.4, HBV = 0, T2): 0.085
- MEAN A66O ([1]; AMP = 0.4, HBV = 0, T4): 0.191
- MEAN A66O ([1]; AMP = 0.4, HBV = 0, T6): 0.110
- MEAN A66O ([1]; AMP = 0.4, HBV = 0, T8): 0.048
- MEAN A66O ([1]; AMP = 0.4, HBV = 0, T12): 0.027
- MEAN A66O ([1]; AMP = 0.4, HBV = 0, T24): 0.027
- MEAN A660 ([2]; AMP = 0.5, HBV = 0, T0): 0.015
- MEAN A660 ([2]; AMP = 0.5, HBV = 0, T2): 0.084
- MEAN A660 ([2]; AMP = 0.5, HBV = 0, T4): 0.600
- MEAN A660 ([2]; AMP = 0.5, HBV = 0, T6): 1.001
- MEAN A660 ([2]; AMP = 0.5, HBV = 0, T8): 0.999
- MEAN A660 ([2]; AMP = 0.5, HBV = 0, T12): 1.085
- MEAN A660 ([2]; AMP = 0.5, HBV = 0, T24): 1.156
- MEAN A660 ([2]; AMP = 1, HBV = 0, T0): 0.015
- MEAN A660 ([2]; AMP = 1, HBV = 0, T2): 0.084
- MEAN A660 ([2]; AMP = 1, HBV = 0, T4): 0.538
- MEAN A660 ([2]; AMP = 1, HBV = 0, T6): 0.628
- MEAN A660 ([2]; AMP = 1, HBV = 0, T8): 0.493
- MEAN A660 ([2]; AMP = 1, HBV = 0, T12): 0.475
- MEAN A660 ([2]; AMP = 1, HBV = 0, T24): 0.504
- MEAN A660 ([2]; AMP = 2, HBV = 0, T0): 0.015
- MEAN A660 ([2]; AMP = 2, HBV = 0, T2): 0.084
- MEAN A660 ([2]; AMP = 2, HBV = 0, T4): 0.428
- MEAN A660 ([2]; AMP = 2, HBV = 0, T12): 0.136
- MEAN A660 ([2]; AMP = 2, HBV = 0, T24): 0.647
- MEAN A660 ([2]; AMP = 4, HBV = 0, T0): 0.015
- MEAN A660 ([2]; AMP = 4, HBV = 0, T2): 0.084
- MEAN A660 ([2]; AMP = 4, HBV = 0, T4): 0.158
- MEAN A660 ([2]; AMP = 4, HBV = 0, T6): 0.063
- MEAN A660 ([2]; AMP = 4, HBV = 0, T12): 0.055
- MEAN A660 ([2]; AMP = 4, HBV = 0, T24): 0.056
- MEAN A660 ([3]; AMP = 0.05, HBV = 0, T0): 0.020
- MEAN A660 ([3]; AMP = 0.05, HBV = 0, T2): 0.064
- MEAN A660 ([3]; AMP = 0.05, HBV = 0, T4): 0.230
- MEAN A660 ([3]; AMP = 0.05, HBV = 0, T6): 0.338
- MEAN A660 ([3]; AMP = 0.05, HBV = 0, T8): 0.372
- MEAN A660 ([3]; AMP = 0.05, HBV = 0, T12): 0.352
- MEAN A660 ([3]; AMP = 0.05, HBV = 0, T24): 0.461
- MEAN A660 ([3]; AMP = 0.1, HBV = 0, T0): 0.020
- MEAN A660 ([3]; AMP = 0.1, HBV = 0, T2): 0.064
- MEAN A660 ([3]; AMP = 0.1, HBV = 0, T4): 0.379
- MEAN A660 ([3]; AMP = 0.1, HBV = 0, T6): 0.156
- MEAN A660 ([3]; AMP = 0.1, HBV = 0, T8): 0.112
- MEAN A660 ([3]; AMP = 0.1, HBV = 0, T12): 0.050
- MEAN A660 ([3]; AMP = 0.1, HBV = 0, T24): 0.053
- MEAN A660 ([3]; AMP = 0.2, HBV = 0, T0): 0.020
- MEAN A660 ([3]; AMP = 0.2, HBV = 0, T2): 0.064
- MEAN A660 ([3]; AMP = 0.2, HBV = 0, T4): 0.131
- MEAN A660 ([3]; AMP = 0.2, HBV = 0, T6): 0.110
- MEAN A660 ([3]; AMP = 0.2, HBV = 0, T8): 0.073
- MEAN A660 ([3]; AMP = 0.2, HBV = 0, T12): 0.030
- MEAN A660 ([3]; AMP = 0.2, HBV = 0, T24): 0.037
- MEAN A660 ([3]; AMP = 0.4, HBV = 0, T0): 0.020
- MEAN A660 ([3]; AMP = 0.4, HBV = 0, T2): 0.064
- MEAN A660 ([3]; AMP = 0.4, HBV = 0, T4): 0.202
- MEAN A660 ([3]; AMP = 0.4, HBV = 0, T6): 0.290
- MEAN A660 ([3]; AMP = 0.4, HBV = 0, T8): 0.285
- MEAN A660 ([3]; AMP = 0.4, HBV = 0, T12): 0.271
- MEAN A660 ([3]; AMP = 0.4, HBV = 0, T24): 0.277
